Experiment: Solubility enhancement of zotarolimus with select excipient solutions
Assay type: physicochemical
Conditions: Phosphate buffered saline; n = 3
Text: Table 1 provides non-limiting examples of the solubility data for excipients that can be used in accordance with the disclosed subject matter:
As illustrated, in Table 1 the excipients provide for increased solubility for the cytostatic drug, zotarolimus, as compared to saline alone.

Compound: CO[C@H]1C[C@@H]2CC[C@@H](C)[C@@](O)(O2)C(=O)C(=O)N2CCCC[C@H]2C(=O)O[C@H]([C@H](C)C[C@@H]2CC[C@H](n3cnnn3)[C@H](OC)C2)CC(=O)[C@H](C)/C=C(\C)[C@@H](O)[C@@H](OC)C(=O)[C@H](C)C[C@H](C)/C=C/C=C/C=C/1C [Zotarolimus, zotarolimus]
- Zotarolimus Solubility: 0.53 µg/mL
